Here are results for ten compounds from patent US12714706B2, “Methods of treating small cell lung cancer with lurbinectedin formulations” (PHARMA MAR, S.A., priority 2019, dated 2026).

Data set [1] in a line: Analytical results and impurity profile of batches of Form A and Form B of lurbinectedin. The data set is classed as physicochemical. More on the design: Impurity RRT approx. 1.10-1.11 / Impurity RRT approx. 1.12 / Impurity RRT approx. 1.27-1.34 / Impurity RRT approx. 1.29-1.30 / Impurity RRT approx. 1.30-1.32 / Impurity RRT approx. 1.28-1.37 / Impurity RRT approx. 2.37 / Impurity RRT approx. 2.41-2.52 / Impurity RRT approx. 2.85 / Impurity RRT approx. 0.66-0.69 / Impurity RRT approx. 0.72-0.76: unit not given here. The text has this: Several batches of Form A of lurbinectedin were manufactured by this method.
Several batches of Form B of lurbinectedin were manufactured by this method.

Data set [2] can be described thus: Electrostatic charge measurements with a Faraday cage. The data set is classed as physicochemical. As to conditions: dry nitrogen, 95% confidence. The protocol: This technique consists in placing the sample to be measured (q) in the interior of the inner sphere (a) and measuring the difference of potential induced between sphere (a) and another conductor of reference, sphere (b). The external sphere (c) is grounded in order to shield the system.
Measurements were carried out under controlled atmosphere of dry nitrogen in order to avoid the effect of ambient humidity on the electrostatic charge of the samples. Samples were introduced in glass capsules using non-conductor instrumental to avoid loses of electrostatic charge. The capsules loaded with the samples were introduced in the Faraday cage through a grounded conductor tube to avoid parasitic static charges in the glass capsule. The entry and removal of the capsules was done with a computer-controlled servo engine, in order to ensure a constant rate of introduction and removal of the capsules in each measurement to minimize the creation of static charges due to friction of the insulator elements.
Results: Several measurements with different amounts of material were carried out for each batch of each form of lurbinectedin. Before loading the capsules, they were washed and their remaining static charge was measured in order to correct the levels. Each sample was introduced and removed five times and, after each introduction, several consecutive measurements were taken in order to average any possible drift effect.
The data was fitted by lineal regression (dashed lines in FIGS. 9a and 9b) to obtain the charge density (Q/m) as the slope of the line.

Data set [3] can be described thus: Direct dissolution of lurbinectedin at 0.5 mg/mL in 0.03 M sodium lactate buffer pH 4. It counts as physicochemical. The text has this: In embodiments, the lurbinectedin to be dissolved is at least partially crystalline. The lurbinectedin to be dissolved may be in the solid state form(s) described herein.
The nature of data set [4]: DVS (dynamic vapor sorption). The data set is classed as physicochemical. The protocol:
DVS experiments were carried out with a Projekt Messtechnik SPS 11-100n multi-sample water vapor sorption analyzer. The sample was allowed to equilibrate at 50% r.h. before starting a pre-defined humidity program. The program was: • 2 h at 50% r.h. • 50 to 0% r.h. (5%/h) • 5 h at 0% r.h. • 0 to 95% r.h (5%/h) • 5 h at 95% r.h. • 95 to 50% (5%/h) • 2 h at 50% r.h.

The next data set is described as follows: TG-FTIR. The data set is classed as physicochemical. As to the method:
TG-FTIR experiments were conducted with a Thermo-Microbalance TG-209 (Netzsch) equipped with a FT-IR Spectrometer Vector 22 (Bruker) using Al crucible (open or with microhole) under N2 atmosphere with a heating range between 25 and 250° C. and a heating rate of 10° C./min.

The nature of a further data set: DSC. It counts as physicochemical. As to the method:
DSC experiments were carried out with a Perkin Elmer DSC 7 using closed Au crucibles with a heating range between −50 to 250° C. and a heating rate of 10 or 20° C./min.

The conditions of data set [5]: irinotecan 125 mg/m2 (Camptosar label); n=64; mean (SD); cited from earlier work.
Data set [6] is described as follows: Lurbinectedin plus irinotecan trial: pharmacokinetics of lurbinectedin, irinotecan and SN-38. As to conditions: combination: lurbinectedin 1.0-2.4 mg/m2 + irinotecan 75 mg/m2; n=39; mean (SD).
Another data set has as its system SCLC. Put plainly: Post-hoc exploratory analysis of response in SCLC patients who had previously received immunotherapy. It counts as in vivo, human. As to conditions: individual SCLC patients, therapy before lurbinectedin. The text has this: Post-hoc exploratory analysis was done on the response in patients who had previously received immunotherapy (n=8).
The mark [7] stands for this setting: batches of Form B of lurbinectedin, listed as 1924128-LT.
[8] abbreviates: impurity profile, batches of Form B, listed as 1924128-LT.
Where [9] appears, read: batches of Form B of lurbinectedin.
The mark [10] stands for this setting: batches of Form B of lurbinectedin, listed as 1924129-LT.
Where [11] appears, read: impurity profile, batches of Form B, listed as 1924129-LT.
[12] abbreviates: batches of Form A of lurbinectedin, listed as P04.
Where [13] appears, read: impurity profile, batches of Form A, listed as P04.
[14] abbreviates: impurity profile, batches of Form B.
Setting [15] is: batches of Form A of lurbinectedin, listed as R05.
The mark [16] stands for this setting: impurity profile, batches of Form A, listed as R05.

Where “and” joins values, the source holds several entries; their conditions need not be identical. Identical values can stand only once. Like-named read-outs stand apart in the source and are kept apart here.

`COc1ccc2[nH]c3c(c2c1)CCN[C@]31CS[C@@H]2c3c(OC(C)=O)c(C)c4c(c3[C@H](COC1=O)N1[C@@H]2[C@H]2c3c(cc(C)c(OC)c3O)C[C@@H]([C@@H]1O)N2C)OCO4` [Batch 1924128-LT]: in data set [1] (setting [7]), the “Total Impurities” value amounted to 0.4 % Area and the “Water Content” value amounted to 3.0 % w/w. For the same compound, in [1] (setting [8]), the “Impurity RRT aprox 0.66-0.69” value is recorded as 0.06 % area, the “Impurity RRT aprox 0.72-0.76” value came to 0.25 % area and the “Impurity RRT aprox 0.90-0.92” value worked out at 0.07 % area. Besides, in [2] (listed as 1924128-LT), the “Average charge density (Q/m)” value came out at 4.3 ± 0.4 nC/g and the “Dispersion of charge density (Q/m)” value turned out to be 1.01 ± 0.3 nC/g.
`COc1ccc2[nH]c3c(c2c1)CCN[C@]31CS[C@@H]2c3c(OC(C)=O)c(C)c4c(c3[C@H](COC1=O)N1[C@@H]2[C@H]2c3c(cc(C)c(OC)c3O)C[C@@H]([C@@H]1O)N2C)OCO4` [Batch 1924129-LT]: in data set [1] (setting [9]), the “Residual Solvents Acetonitrile” value is reported as “<LOQ”, the “Residual Solvents CH2Cl2” value is listed as “<LOQ”, the “Residual Solvents Methanol” value was “<LOQ” and the “Residual Solvents Pentane” value is “<LOQ”. Also, in [1] (setting [9]), the “Residual Solvents Total” value came to 0.0 % w/w. Further, in data set [1] (setting [10]), the “Total Impurities” value is on record as 0.4 % Area and the “Water Content” value was 4.1 % w/w. Also, in [1] (setting [11]), the “Impurity RRT aprox 0.66-0.69” value is given as 0.07 % area, the “Impurity RRT aprox 0.72-0.76” value is listed as 0.24 % area and the “Impurity RRT aprox 0.90-0.92” value came to 0.08 % area. For the same compound, in data set [2] (listed as 1924129-LT), the “Average charge density (Q/m)” value is recorded as 4.96 ± 2.0 nC/g and the “Dispersion of charge density (Q/m)” value was 3.4 ± 1.4 nC/g.
Take `COc1ccc2[nH]c3c(c2c1)CCN[C@]31CS[C@@H]2c3c(OC(C)=O)c(C)c4c(c3[C@H](COC1=O)N1[C@@H]2[C@H]2c3c(cc(C)c(OC)c3O)C[C@@H]([C@@H]1O)N2C)OCO4` [Batch P04]: in data set [1] (batches of Form A of lurbinectedin), the “Residual Solvents Ethyl acetate” value was “<LOQ”. Moreover, in [1] (setting [12]), the “Impurities Total” value stood at 0.2 % Area, the “Residual Solvents Acetonitrile” value was “<LOQ”, the “Residual Solvents Dichloro-methane” value is given as “<LOQ” and the “Residual Solvents Hexane” value is reported as “<LOQ”. Also, in data set [1] (setting [12]), the “Residual Solvents Methanol” value came to 1.6 % w/w, the “Residual Solvents Pentane” value is 0.5 % w/w, the “Residual Solvents Total” value came out at 2.1 % w/w and the “Water Content” value is 1.6 % w/w. Further, in [1] (setting [13]), the “Impurity RRT approx. 0.72-0.76” value was 0.09 and the “Impurity RRT approx. 1.29-1.30” value is recorded as 0.10. Besides, in [2] (listed as P04), the “Average charge density (Q/m)” value is given as 43.1 ± 3.86 nC/g and the “Dispersion of charge density (Q/m)” value is 7.6 ± 2.8 nC/g.
As to `COc1ccc2[nH]c3c(c2c1)CCN[C@]31CS[C@@H]2c3c(OC(C)=O)c(C)c4c(c3[C@H](COC1=O)N1[C@@H]2[C@H]2c3c(cc(C)c(OC)c3O)C[C@@H]([C@@H]1O)N2C)OCO4` [Batch R04], in [1] (setting [9]), the “Residual Solvents Acetonitrile” value is “<LOQ”, the “Residual Solvents CH2Cl2” value is “<LOQ”, the “Residual Solvents Methanol” value is listed as “<LOQ” and the “Residual Solvents Pentane” value is “<LOQ”. Further, in data set [1] (setting [9]), the “Residual Solvents Total” value came to 0.0 % w/w, the “Total Impurities” value amounted to 0.4 % Area and the “Water Content” value is 2.6 % w/w. Besides, in data set [1] (setting [14]), the “Impurity RRT aprox 0.66-0.69” value worked out at 0.05 % area, the “Impurity RRT aprox 0.72-0.76” value is given as 0.26 % area and the “Impurity RRT aprox 1.10-1.11” value came out at 0.07 % area.
For `COc1ccc2[nH]c3c(c2c1)CCN[C@]31CS[C@@H]2c3c(OC(C)=O)c(C)c4c(c3[C@H](COC1=O)N1[C@@H]2[C@H]2c3c(cc(C)c(OC)c3O)C[C@@H]([C@@H]1O)N2C)OCO4` [Batch R05], in data set [1] (setting [15]), the “Impurities Total” value is on record as 0.4 % Area, the “Residual Solvents Acetonitrile” value is “<LOQ”, the “Residual Solvents Dichloro-methane” value is reported as “<LOQ” and the “Residual Solvents Hexane” value is on record as “<LOQ”. Also, in data set [1] (setting [15]), the “Residual Solvents Methanol” value amounted to 2.2 % w/w, the “Residual Solvents Pentane” value is 0.3 % w/w, the “Residual Solvents Total” value came to 2.5 % w/w and the “Water Content” value stood at 1.1 % w/w. Also, the “Impurity RRT approx. 2.37” value in data set [1] (impurity profile, batches of Form A) was found to be 0.13. For the same compound, in data set [1] (setting [16]), the “Impurity RRT approx. 0.72-0.76” value is reported as 0.10, the “Impurity RRT approx. 1.10-1.11” value was 0.09 and the “Impurity RRT approx. 1.29-1.30” value came out at 0.05. In data set [2] (listed as R05), the “Average charge density (Q/m)” value is recorded as 64.02 ± 7.98 nC/g and the “Dispersion of charge density (Q/m)” value is listed as 15.23 ± 5.64 nC/g.
For `COc1ccc2[nH]c3c(c2c1)CCN[C@]31CS[C@@H]2c3c(OC(C)=O)c(C)c4c(c3[C@H](COC1=O)N1[C@@H]2[C@H]2c3c(cc(C)c(OC)c3O)C[C@@H]([C@@H]1O)N2C)OCO4` [Form A of lurbinectedin], the “Time to complete direct dissolution” value in [3] (0.5 mg/mL in 0.03 M sodium lactate buffer pH 4) is “approximately 30 minutes”.
Regarding `COc1ccc2[nH]c3c(c2c1)CCN[C@]31CS[C@@H]2c3c(OC(C)=O)c(C)c4c(c3[C@H](COC1=O)N1[C@@H]2[C@H]2c3c(cc(C)c(OC)c3O)C[C@@H]([C@@H]1O)N2C)OCO4` [Form B of lurbinectedin], in data set [4], the “Deliquescence by DVS” value is on record as “not deliquescent” and the “Hygroscopicity by DVS” value is reported as “hygroscopic”. Also, in data set [4] (50 to 96% r.h.), the “DVS mass change Δm” value is given as 4%. In addition, the “Fraction of the target concentration reached” value in data set [3] (0.5 mg/mL in 0.03 M sodium lactate buffer pH 4, in 2 hours) is recorded as 60-70%. Further, in “TG-FTIR”, the “Degradation temperature by TG-FTIR” value was “above 150 °C” and the “Release of water by TG-FTIR” value was found to be 2.6%. Besides, the “Temperature at which degradation begins by DSC” value in “DSC” is “above 130 °C”.
As to `CCc1c2c(nc3ccc(O)cc13)-c1cc3c(c(=O)n1C2)COC(=O)[C@]3(O)CC` [SN-38], in data set [5], the Cmax was 26.3 (11.9) ug/L and the HL was 21.0 (20) h. In addition, in data set [6], the CL is listed as 810.3 (574) L/h, the Cmax is 18.1 (7.7) ug/L, the HL is recorded as 18.6 (9.1) h and the Vz is recorded as 18232.3 (8208.4) L.
On to `CCc1c2c(nc3ccc(OC(=O)N4CCC(N5CCCCC5)CC4)cc13)-c1cc3c(c(=O)n1C2)COC(=O)[C@]3(O)CC` [irinotecan, reference compound], for which, in data set [5], the HL is 11.7 (9) h.
In the case of Nivolumab, the “Last prior therapy: TTP” value in the data set with SCLC (resistant disease) was 2.2 months and 4.1 months and 2.5 months; with SCLC (sensitive disease), 1.8 months and 1.4 months.
